According to PMC4476580, “Novel Broad Spectrum Inhibitors Targeting the Flavivirus Methyltransferase” (PLoS ONE, 2015):
Read-outs that look alike come from different tables or passages of the source.

Tests used:
WNV = assay: Viral titer reduction assay; conditions: for Inhibition of the WNV titer: highest concentration tested (200 μM)
WNV MTase [1] = target: T1, WNV MTase (West Nile virus, UniProt Q9Q6P4); assay: biochemical; assay type: biochemical
T1 construct: containing the N-terminal 300, 266, 265, and 272 amino acids of NS5 protein, respectively; made in house
T1 sequence (Q9Q6P4 2529-2794 limits assumed): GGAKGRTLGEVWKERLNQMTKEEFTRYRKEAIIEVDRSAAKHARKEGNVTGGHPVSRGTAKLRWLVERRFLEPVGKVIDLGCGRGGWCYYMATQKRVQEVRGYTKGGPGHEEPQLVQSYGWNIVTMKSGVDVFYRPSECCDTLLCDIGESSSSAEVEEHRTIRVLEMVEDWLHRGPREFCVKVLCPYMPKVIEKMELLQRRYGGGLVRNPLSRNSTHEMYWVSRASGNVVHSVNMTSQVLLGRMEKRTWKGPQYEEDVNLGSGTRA

BHK-21 cells = assay: MTT cell proliferation cytotoxicity assay; assay type: cell-based; conditions: for CC50 values times higher than IC50 values: BHK-21 CC50 versus in vitro IC50; for CC50: BHK-21 cells, MTT, 42 hours
Protocol: (§1) Cell-based assays were next performed to evaluate the biological activities of the selected compounds. The cytotoxicity of these compounds was first evaluated by using a MTT cell proliferation assay with a BHK-21 cell line (Table 1, fig 5), as we described previously. […] Therefore, these compounds were further investigated for their in vitro antiviral efficacy.
(§2) Cytotoxicity was measured using BHK-21 cells by a MTT cell proliferation assay using the 3-(4,5-dimethylthiazol-2-yl)-2,5-diphenyl tetrazolium bromide method (ATCC), as described previously.

[2] = MTT cell proliferation cytotoxicity assay; assay type: cell-based; conditions: hamster; BHK-21 cells, MTT, 42 hours
Protocol: as §1, §2

WNV MTase [3] = target: T1, WNV MTase; assay: biochemical
DENV3 MTase [4] = target: T2, DENV3 MTase (Dengue virus type 3, UniProt Q6YMS4); assay type: biochemical; conditions: read-out: IC50 2’-O
T2 construct: containing the N-terminal 300, 266, 265, and 272 amino acids of NS5 protein, respectively; made in house
T2 sequence (Q6YMS4 2492-2753): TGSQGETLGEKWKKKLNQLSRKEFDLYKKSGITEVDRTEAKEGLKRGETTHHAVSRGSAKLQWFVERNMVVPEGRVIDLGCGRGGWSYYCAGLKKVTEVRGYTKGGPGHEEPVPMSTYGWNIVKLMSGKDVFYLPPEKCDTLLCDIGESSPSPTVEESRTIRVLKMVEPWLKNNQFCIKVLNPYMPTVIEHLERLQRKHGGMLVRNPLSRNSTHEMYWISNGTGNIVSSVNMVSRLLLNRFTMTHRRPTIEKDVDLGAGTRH

DENV3 MTase [5] = target: T2, DENV3 MTase; assay type: biochemical; conditions: read-out: IC50 N7
DENV2 MTase [6] = target: T3, DENV2 MTase (Dengue virus type 2, UniProt P14340); assay type: biochemical; conditions: read-out: IC50 N7
T3 construct: containing the N-terminal 300, 266, 265, and 272 amino acids of NS5 protein, respectively; made in house
T3 sequence (P14340 2493-2755 limits assumed): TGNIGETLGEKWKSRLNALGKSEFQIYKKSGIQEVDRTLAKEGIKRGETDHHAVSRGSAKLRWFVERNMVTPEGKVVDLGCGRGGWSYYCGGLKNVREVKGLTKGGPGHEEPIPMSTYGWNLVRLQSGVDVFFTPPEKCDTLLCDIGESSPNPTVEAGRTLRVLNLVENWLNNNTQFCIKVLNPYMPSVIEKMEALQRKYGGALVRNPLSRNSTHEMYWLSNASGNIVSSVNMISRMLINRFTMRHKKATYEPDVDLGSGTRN

DENV2 MTase [7] = target: T3, DENV2 MTase; assay type: biochemical; conditions: read-out: IC50 2’-O
YFV MTase [8] = target: T4, YFV MTase (Yellow fever virus, UniProt P03314); assay type: biochemical; conditions: read-out: IC50 N7
T4 sequence (P03314 2507-2771 limits assumed): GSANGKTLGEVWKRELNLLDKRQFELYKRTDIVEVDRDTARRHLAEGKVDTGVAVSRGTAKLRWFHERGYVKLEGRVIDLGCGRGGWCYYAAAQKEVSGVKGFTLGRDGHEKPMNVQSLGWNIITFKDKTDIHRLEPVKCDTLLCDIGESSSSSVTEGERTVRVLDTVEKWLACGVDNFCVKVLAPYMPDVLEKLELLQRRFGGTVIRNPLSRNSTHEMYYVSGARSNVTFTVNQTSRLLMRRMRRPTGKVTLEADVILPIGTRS

YFV MTase [9] = target: T4, YFV MTase; assay type: biochemical; conditions: read-out: IC50 2’-O

## O=C1CN2CCN(CC2)CC(=O)Nc2ccc(cc2)S(=O)(=O)c2ccc(cc2)NC(=O)CN2CCN(CC2)CC(=O)Nc2ccc(cc2)S(=O)(=O)c2ccc(cc2)N1 [NSC 36806]
WNV; West Nile virus, 42 h
  EC50: > 200 µM
WNV
  Inhibition of the WNV titer: did not inhibit the WNV titer
WNV MTase [1]; IC50 N7 No CHAPS
  IC50: 39 µM
WNV MTase [1]; IC50 N7 with CHAPS
  IC50: 35.5 µM
BHK-21 cells
  CC50 values times higher than IC50 values: ~10
[2]
  CC50 at 42 h: 362 µM
WNV MTase [3]
  IC50: > 300 µM

## O=C1c2cc([N+](=O)[O-])ccc2-c2ccc3c4ccc5c6c(ccc(c7ccc1c2c73)c64)C(=O)c1cc([N+](=O)[O-])ccc1-5 [NSC 51535]
WNV MTase [1]; read-out: IC50 N7 No CHAPS
  IC50: 3.9 µM
[2]
  CC50 at 42 h: 5.7 µM
WNV MTase [3]; read-out: IC50 2’-O with CHAPS
  IC50: 5.6 µM

## O=C1c2ccccc2C(=O)c2c1ccc(N1C(=O)c3ccccc3C1=O)c2-c1c(N2C(=O)c3ccccc3C2=O)ccc2c1C(=O)c1ccccc1C2=O [NSC 115448]
WNV MTase [1]; IC50 N7 No CHAPS
  IC50: 15.7 µM
WNV MTase [1]; IC50 N7 with CHAPS
  IC50: 225 µM
[2]
  CC50 at 42 h: 155 µM
WNV MTase [3]
  IC50: 16.6 µM

## O=c1c2ccccc2c2ccccc2c(=O)n1-c1cc2c3ccccc3ccc2c2ccccc12 [NSC 128609]
WNV MTase [1]; IC50 N7 No CHAPS
  IC50: 40 µM
[2]
  CC50 at 42 h: 192 µM
WNV MTase [3]
  IC50: 101 µM

## COc1ccc2cc1Oc1ccc(cc1)CC1c3c(cc(OC)c4c3Oc3cc5c(cc3O4)CCNC5C2)CCN1C (stereo not drawn) [NSC 181486]
WNV MTase [1]; IC50 N7 No CHAPS
  IC50: 25.9 µM
WNV MTase [1]; IC50 N7 with CHAPS
  IC50: 34.7 µM
[2]
  CC50 at 42 h: 4.8 µM
WNV MTase [3]
  IC50: > 300 µM

## Cc1ccc(NC(=O)c2cc3ccccc3cc2O)c(C)c1.Cc1ccc(NC(=O)c2cc3ccccc3cc2O)c(C)c1.[Ni] [NSC 306698]
WNV MTase [1]; read-out: IC50 N7 No CHAPS
  IC50: 45 µM
BHK-21 cells
  CC50: 32 µM
WNV MTase [3]; read-out: IC50 2’-O with CHAPS
  IC50: 49.1 µM

## Cc1nn(-c2ccc(S(=O)(=O)[O-])cc2)c([O-])c1N=Nc1ccc(-c2ccc(N=Nc3ccc4c(S(=O)(=O)[O-])cc(S(=O)(=O)[O-])c(N)c4c3[O-])c([O-])c2)cc1[O-].[Cu+2].[Cu+2].[H+].[H+].[H+] [NSC 306711]
DENV3 MTase [4]
  IC50: 4.7 µM
DENV3 MTase [5]
  IC50: 36 µM
WNV; BHK cells infected with WNV, MOI 0.1, 42 hours post-infection, plaque assay on Vero cells
  EC50: 1 µM
WNV MTase [1]; read-out: IC50 N7 No CHAPS
  IC50: 0.87 µM
WNV MTase [1]; read-out: IC50 N7 with CHAPS
  IC50: 2.3 µM
BHK-21 cells
  CC50 values times higher than IC50 values: ~10
  CC50: 332 µM
DENV2 MTase [6]
  IC50: 5.3 µM
DENV2 MTase [7]
  IC50: 6.9 µM
YFV MTase [8]
  IC50: 1200 nM
YFV MTase [9]
  IC50: 1100 nM
WNV MTase [3]; read-out: IC50 2’-O with CHAPS
  IC50: 4.3 µM

## CN1CCN(c2ccc3[nH]c(-c4ccc5[nH]c(-c6ccc(O)cc6)nc5c4)nc3c2)CC1 [NSC 322921]
WNV; West Nile virus, 42 h
  EC50: > 200 µM
WNV
  Inhibition of the WNV titer: did not inhibit the WNV titer
WNV MTase [1]; IC50 N7 No CHAPS
  IC50: 29.9 µM
WNV MTase [1]; IC50 N7 with CHAPS
  IC50: 26.5 µM
BHK-21 cells
  CC50 values times higher than IC50 values: ~10
[2]
  CC50 at 42 h: > 500 µM
WNV MTase [3]
  IC50: > 300 µM

## Ic1ccc2c(c1)N(c1ccccc1)c1cc(Nc3ccc4c(c3)N(c3ccccc3)c3cc(I)ccc3N4)ccc1N2 [NSC 402959]
WNV MTase [1]; read-out: IC50 N7 No CHAPS
  IC50: 9.8 µM
WNV MTase [1]; read-out: IC50 N7 with CHAPS
  IC50: 30.8 µM
[2]
  CC50 at 42 h: 14.6 µM
WNV MTase [3]; read-out: IC50 2’-O with CHAPS
  IC50: 6.2 µM

## CC1=C(Nc2c(C)cc(O)cc2O)C(=O)C=c2oc3c(c21)C(C)=C(Nc1c(C)cc(O)cc1O)C(=O)C=3 [NSC 610930]
WNV; West Nile virus, 42 h
  EC50: 12.6 µM
WNV MTase [1]; IC50 N7 No CHAPS
  IC50: 4.2 µM
WNV MTase [1]; IC50 N7 with CHAPS
  IC50: 18.2 µM
BHK-21 cells
  CC50 values times higher than IC50 values: ~10
[2]
  CC50 at 42 h: 117 µM
WNV MTase [3]
  IC50: 5.6 µM

## Nc1ncnc2c1ncn2[C@@H]1O[C@H](C[C@@H](N)CC[C@H](N)C(=O)O)[C@@H](O)[C@H]1O [SIN, sinefungin, reference compound]
WNV MTase [1]
  Inhibition of the N7 activity of the WNV MTase: ~ 80%
